Assay results as given in patent US4684742A, “Process for the production of 2-(2-halogenoethylamino)-2-oxo-3-(2-halogenoethyl)-1.3.2.-oxazaphosphori nanes” (Polska Akademia Nauk-Centrum Baden Molekularnych i …, priority 1984, dated 1987).

How the values were obtained:
[1] = system: L1210; experiment: Antileukemic activity in L1210 leukemic CD2F1 female mice (increase in life span); type: in vivo; details: for ED50: Mus musculus, L1210 leukemic CD2F1 female mice, estimated by regression analysis, read-out: ED50 (dose producing 50% increase in life span of treated mice over control); for advantage over parent ifosfamide: racemic or enantiomeric compounds, versus ifosfamide, conclusion from Table 1
Protocol: (§1) Antileukemic activity against L1210, toxicity and therapeutic
Antileukemic activity was evaluated in L1210 leukemic CD2F1 female
mice ED50 doses producing the 50% increase in life span of treated
mice over control were estimated from experimental data by regression
(§2) anlysis. Toxicity (LD50) were determined in healthy CD2F1 femal

[2] = Toxicity (LD50) in healthy CD2F1 female mice, 14 days observation; details: mouse, in vivo; for selectivity ratio: TI from LD50 (healthy CD2F1 mice) and ED50 (L1210 leukemic CD2F1 mice), read-out: Therapeutic index; for LD50 at 336 h: healthy CD2F1 female mice, 14 days observation period
Protocol: as §1, §2
mice during 14 days observation period. TI = LD50

## O=P1(NCCCl)OCCCN1CCBr (centres unmarked) [X=Cl, Y=Br, 2-(2-Chloroethylamino)-2-oxo-3-(2-bromoethyl)-1.3.2-oxazaphosphorinane]
[1]
  ED50: 44 mg/kg
  advantage over parent ifosfamide: more advantageous than parent ifosfamide
[2]
  selectivity ratio: 11.6
  LD50 at 336 h: 512 mg/kg

## O=P1(NCCCl)OCCCN1CCCl (centres unmarked) [X=Cl, Y=Cl, 2-(2-chloroethylamino)-2-oxo-3-(2-chloroethyl)-1.3.2-oxazaphosphorinane, reference compound]
[1]
  ED50: 103 mg/kg
[2]
  selectivity ratio: 6.6
  LD50 at 336 h: 680 mg/kg

## O=P1(NCCBr)OCCCN1CCBr (centres unmarked) [X=Br, Y=Br, 2-(2-Bromoethylamino)-2-oxo-3-(2-bromoethyl)-1.3.2-oxazaphosphorinane]
[1]
  ED50: 43 mg/kg
  advantage over parent ifosfamide: more advantageous than parent ifosfamide
[2]
  selectivity ratio: 10.7
  LD50 at 336 h: 459 mg/kg
